Experimental data: US8952024B2, “Herbicidal pyrimidone derivatives” (E I du Pont de Nemours and Company, priority 2009, dated 2015)

Columns and labels:
Type in all cases: in vivo
[1] = tested on: wheat (Triticum aestivum); experiment: Test A pre-/postemergence plant response
Method in brief: (§1)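 Greenhouse trial, ~10 days. Soil (loam/sand) sprayed preemergence after seeding; emerged plants (1–2 leaf, 2–10 cm) sprayed postemergence in parallel. Response = visual injury vs untreated control, 0–100.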

[2] = tested on: giant foxtail (Setaria faberii); experiment: Test A pre-/postemergence plant response
Method in brief: as §1

corn (Zea mays) = experiment: Test A pre-/postemergence plant response
Method in brief: as §1

[3] = tested on: large crabgrass (Digitaria sanguinalis); experiment: Test A pre-/postemergence plant response
Method in brief: as §1

[4] = tested on: barnyardgrass (Echinochloa crus-galli); experiment: Test A pre-/postemergence plant response
Method in brief: as §1

[5] = tested on: pigweed (Amaranthus retroflexus); experiment: Test A pre-/postemergence plant response
Method in brief: as §1

[6] = tested on: velvetleaf (Abutilon theophrasti); experiment: Test A pre-/postemergence plant response
Method in brief: as §1

[7] = tested on: morningglory (Ipomoea spp.); experiment: Test A pre-/postemergence plant response
Method in brief: as §1

[8] = tested on: ducksalad (Heteranthera limosa); experiment: Test B flooded paddy test; conditions: for Plant response rating, Flood, Ducksalad: 250 g ai/ha, flooded paddy test, visual rating on 0 to 100 scale (0 no effect, 100 complete control) after 13 to 15 days; for Plant response rating, Ducksalad: Flood (flooded paddy test), 13 to 15 days; for Ducksalad plant response rating: Flood, scale 0 to 100 (0 no effect, 100 complete control)
Method in brief: (§2)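 Plants were grown to the 2-leaf stage, then pots were flooded to 3 cm above the soil and compounds were applied directly into the paddy water. That depth was held throughout. After 13 to 15 days in a greenhouse, injury was visually rated against controls on a 0–100 scale.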

[9] = tested on: umbrella sedge (Cyperus difformis); experiment: Test B flooded paddy test; conditions: for Plant response rating, Flood, Sedge, Umbrella: 250 g ai/ha, flooded paddy test, visual rating on 0 to 100 scale (0 no effect, 100 complete control) after 13 to 15 days; for Plant response rating, Sedge, Umbrella: Flood (flooded paddy test), 13 to 15 days; for Sedge, Umbrella plant response rating: Flood, scale 0 to 100 (0 no effect, 100 complete control)
Method in brief: as §2

[10] = tested on: barnyardgrass (Echinochloa crus-galli); experiment: Test B flooded paddy test; conditions: for Plant response rating, Flood, Barnyardgrass: 250 g ai/ha, flooded paddy test, visual rating on 0 to 100 scale (0 no effect, 100 complete control) after 13 to 15 days; for Plant response rating, Barnyardgrass: Flood (flooded paddy test), 13 to 15 days; for Barnyardgrass plant response rating: Flood, scale 0 to 100 (0 no effect, 100 complete control)
Method in brief: as §2

rice (Oryza sativa) = experiment: Test B flooded paddy test; conditions: for Plant response rating, Flood, Rice: 250 g ai/ha, flooded paddy test, visual rating on 0 to 100 scale (0 no effect, 100 complete control) after 13 to 15 days; for Plant response rating, Rice: Flood (flooded paddy test), 13 to 15 days; for Rice plant response rating: Flood, scale 0 to 100 (0 no effect, 100 complete control)
Method in brief: as §2

[11] = tested on: winter barley (Hordeum vulgare); experiment: Test B postemergence plant response; conditions: for Barley plant response rating (0 to 100 scale): 0 is no effect
Method in brief: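 Plants at the 1- to 4-leaf stage (2 to 18 cm tall), grown in pots of peat moss/vermiculite medium with wetting agent and starter nutrients, received postemergence applications of test chemicals. After 13 to 15 days in a greenhouse, injury was rated visually against untreated controls on a 0 (no effect) to 100 (complete control) scale.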

[12] = Postemergence, 125 g ai/ha, visual injury, 0 to 100 scale (0 no effect, 100 complete control), approx. ten days
[13] = Postemergence, 500 g ai/ha, 0 to 100 scale, 0 = no effect, 100 = complete control, approx. ten days
[14] = Preemergence, 125 g ai/ha, 0 to 100 scale, 0 = no effect, 100 = complete control
[15] = Preemergence, 500 g ai/ha, visual injury, 0 to 100 scale (0 no effect, 100 complete control), approx. ten days
[16] = 31 g ai/ha, scale of 0 to 100 where 0 is no effect and 100 is complete control
[17] = 62 g ai/ha, scale of 0 to 100 where 0 is no effect and 100 is complete control
[18] = 125 g ai/ha, scale 0 to 100, 0 is no effect, 100 is complete control
[19] = 31 g ai/ha, postemergence, scale 0 to 100, 0 is no effect, 100 is complete control
[20] = Postemergence, 125 g ai/ha, visual rating after 13 to 15 days, scale 0 (no effect) to 100 (complete control)
[21] = Postemergence, 125 g ai/ha, 0 to 100 scale where 0 is no effect and 100 is complete control
[22] = 62 g ai/ha, postemergence, 100 is complete control, 13 to 15 days
[23] = Postemergence, 250 g ai/ha, scale 0 to 100 (0 no effect, 100 complete control)

CCn1c(-c2ccccc2)ncc(C(=O)C2=C(O)CCCC2=O)c1=O [Compound 49]
Wheat plant response rating [1, 12]: 0 | Plant response rating, Wheat [1, 13]: 0 | Plant response rating, Wheat [1, 14]: 0 | Plant response rating, Wheat [1, 15]: 0 | Foxtail, Giant plant response rating [2, 12]: 50 | Plant response rating, Foxtail, Giant [2, 13]: 80 | Plant response rating, Foxtail, Giant [2, 14]: 20 | Plant response rating, Foxtail, Giant [2, 15]: 50 | Corn plant response rating (corn (Zea mays); [12]): 0 | Plant response rating, Corn (corn (Zea mays); [13]): 20 | Plant response rating, Corn (corn (Zea mays); [14]): 0 | Plant response rating, Corn (corn (Zea mays); [15]): 0 | Crabgrass, Large plant response rating [3, 12]: 90 | Plant response rating, Crabgrass, Large [3, 13]: 90 | Plant response rating, Crabgrass, Large [3, 14]: 60 | Plant response rating, Crabgrass, Large [3, 15]: 90 | Barnyardgrass plant response rating [4, 12]: 60 | Plant response rating, Barnyardgrass [4, 13]: 90 | Plant response rating, Barnyardgrass [4, 14]: 20 | Plant response rating, Barnyardgrass [4, 15]: 60 | Pigweed plant response rating [5, 12]: 100 | Plant response rating, Pigweed [5, 13]: 100 | Plant response rating, Pigweed [5, 14]: 80 | Plant response rating, Pigweed [5, 15]: 90 | Velvetleaf plant response rating [6, 12]: 100 | Plant response rating, Velvetleaf [6, 13]: 100 | Plant response rating, Velvetleaf [6, 14]: 80 | Plant response rating, Velvetleaf [6, 15]: 90 | Morningglory plant response rating [7, 12]: 100 | Plant response rating, Morningglory [7, 13]: 100 | Plant response rating, Morningglory [7, 14]: 30 | Plant response rating, Morningglory [7, 15]: 80 | Plant response rating, Flood, Ducksalad [8]: 70 | Plant response rating, Ducksalad [8, 16]: 0 | Plant response rating, Ducksalad [8, 17]: 0 | Plant response rating, Ducksalad [8, 18]: 40 | Plant response rating, Flood, Sedge, Umbrella [9]: 85 | Plant response rating, Sedge, Umbrella [9, 16]: 0 | Plant response rating, Sedge, Umbrella [9, 17]: 0 | Plant response rating, Sedge, Umbrella [9, 18]: 0 | Plant response rating, Flood, Barnyardgrass [10]: 0 | Plant response rating, Barnyardgrass [10, 16]: 0 | Plant response rating, Barnyardgrass [10, 17]: 0 | Plant response rating, Barnyardgrass [10, 18]: 0 | Plant response rating, Flood, Rice (rice (Oryza sativa)): 15 | Plant response rating, Rice (rice (Oryza sativa); [16]): 0 | Plant response rating, Rice (rice (Oryza sativa); [17]): 0 | Plant response rating, Rice (rice (Oryza sativa); [18]): 10 | Plant response rating, Barley [11, 19]: 0 | Plant response rating, Barley ([11]; Postemergence, 62 g ai/ha, scale 0 (no effect) to 100 (complete control), 13 to 15 days): 0 | Plant response rating, Barley [11, 20]: 0 | Barley plant response rating ([11]; Postemergence, 250 g ai/ha, scale 0 to 100): 0

COCCOCCn1c(-c2ccccc2)ncc(C(=O)C2=C(O)CCCC2=O)c1=O [Compound 91]
Plant response rating, Wheat [1, 21]: 0 | Plant response rating, Wheat [1, 13]: 50 | Plant response rating, Wheat [1, 14]: 0 | Plant response rating, Wheat [1, 15]: 20 | Plant response rating, Foxtail, Giant [2, 21]: 80 | Plant response rating, Foxtail, Giant [2, 13]: 80 | Plant response rating, Foxtail, Giant [2, 14]: 40 | Plant response rating, Foxtail, Giant [2, 15]: 70 | Plant response rating, Corn (corn (Zea mays); [21]): 0 | Plant response rating, Corn (corn (Zea mays); [13]): 10 | Plant response rating, Corn (corn (Zea mays); [14]): 0 | Plant response rating, Corn (corn (Zea mays); [15]): 0 | Plant response rating, Crabgrass, Large [3, 21]: 90 | Plant response rating, Crabgrass, Large [3, 13]: 100 | Plant response rating, Crabgrass, Large [3, 14]: 90 | Plant response rating, Crabgrass, Large [3, 15]: 100 | Plant response rating, Barnyardgrass [4, 21]: 90 | Plant response rating, Barnyardgrass [4, 13]: 100 | Plant response rating, Barnyardgrass [4, 14]: 60 | Plant response rating, Barnyardgrass [4, 15]: 100 | Plant response rating, Pigweed [5, 21]: 100 | Plant response rating, Pigweed [5, 13]: 100 | Plant response rating, Pigweed [5, 14]: 90 | Plant response rating, Pigweed [5, 15]: 90 | Plant response rating, Velvetleaf [6, 21]: 100 | Plant response rating, Velvetleaf [6, 13]: 100 | Plant response rating, Velvetleaf [6, 14]: 100 | Plant response rating, Velvetleaf [6, 15]: 100 | Plant response rating, Morningglory [7, 21]: 100 | Plant response rating, Morningglory [7, 13]: 100 | Plant response rating, Morningglory [7, 14]: 20 | Plant response rating, Morningglory [7, 15]: 80 | Plant response rating, Flood, Ducksalad [8]: 100 | Plant response rating, Ducksalad [8, 17]: 90 | Plant response rating, Ducksalad [8, 18]: 90 | Ducksalad plant response rating ([8]; 31 g ai/ha): 65 | Plant response rating, Flood, Sedge, Umbrella [9]: 100 | Plant response rating, Sedge, Umbrella [9, 17]: 95 | Plant response rating, Sedge, Umbrella [9, 18]: 100 | Sedge, Umbrella plant response rating ([9]; 31 g ai/ha): 75 | Plant response rating, Flood, Barnyardgrass [10]: 65 | Plant response rating, Barnyardgrass [10, 17]: 20 | Plant response rating, Barnyardgrass [10, 18]: 60 | Barnyardgrass plant response rating ([10]; 31 g ai/ha): 15 | Plant response rating, Flood, Rice (rice (Oryza sativa)): 15 | Plant response rating, Rice (rice (Oryza sativa); [17]): 15 | Plant response rating, Rice (rice (Oryza sativa); [18]): 15 | Rice plant response rating (rice (Oryza sativa); 31 g ai/ha): 0 | Plant response rating, Barley [11, 19]: 0 | Barley plant response rating (0 to 100 scale) [11, 22]: 30 | Plant response rating, Barley [11, 20]: 30 | Plant response rating, Barley [11, 23]: 40

CC(C)Cc1ncc(C(=O)C2=C(O)CCCC2=O)c(=O)n1-c1ccccc1 [Compound 68]
Wheat plant response rating [1, 12]: 0 | Plant response rating, Wheat [1, 13]: 0 | Plant response rating, Wheat [1, 14]: 0 | Plant response rating, Wheat [1, 15]: 0 | Foxtail, Giant plant response rating [2, 12]: 50 | Plant response rating, Foxtail, Giant [2, 13]: 70 | Plant response rating, Foxtail, Giant [2, 15]: 60 | Corn plant response rating (corn (Zea mays); [12]): 0 | Plant response rating, Corn (corn (Zea mays); [13]): 10 | Plant response rating, Corn (corn (Zea mays); [14]): 0 | Plant response rating, Corn (corn (Zea mays); [15]): 0 | Crabgrass, Large plant response rating [3, 12]: 80 | Plant response rating, Crabgrass, Large [3, 13]: 100 | Plant response rating, Crabgrass, Large [3, 14]: 70 | Plant response rating, Crabgrass, Large [3, 15]: 100 | Barnyardgrass plant response rating [4, 12]: 80 | Plant response rating, Barnyardgrass [4, 13]: 90 | Plant response rating, Barnyardgrass [4, 14]: 0 | Plant response rating, Barnyardgrass [4, 15]: 50 | Pigweed plant response rating [5, 12]: 100 | Plant response rating, Pigweed [5, 13]: 100 | Plant response rating, Pigweed [5, 14]: 90 | Plant response rating, Pigweed [5, 15]: 100 | Velvetleaf plant response rating [6, 12]: 100 | Plant response rating, Velvetleaf [6, 13]: 100 | Plant response rating, Velvetleaf [6, 14]: 70 | Plant response rating, Velvetleaf [6, 15]: 100 | Morningglory plant response rating [7, 12]: 90 | Plant response rating, Morningglory [7, 13]: 90 | Plant response rating, Morningglory [7, 14]: 20 | Plant response rating, Morningglory [7, 15]: 50 | Plant response rating, Flood, Ducksalad [8]: 40 | Plant response rating, Ducksalad [8, 17]: 0 | Plant response rating, Ducksalad [8, 18]: 30 | Ducksalad plant response rating ([8]; 31 g ai/ha): 0 | Plant response rating, Flood, Sedge, Umbrella [9]: 0 | Plant response rating, Sedge, Umbrella [9, 17]: 0 | Plant response rating, Sedge, Umbrella [9, 18]: 0 | Sedge, Umbrella plant response rating ([9]; 31 g ai/ha): 0 | Plant response rating, Flood, Barnyardgrass [10]: 20 | Plant response rating, Barnyardgrass [10, 17]: 0 | Plant response rating, Barnyardgrass [10, 18]: 0 | Barnyardgrass plant response rating ([10]; 31 g ai/ha): 0 | Plant response rating, Flood, Rice (rice (Oryza sativa)): 30 | Plant response rating, Rice (rice (Oryza sativa); [17]): 15 | Plant response rating, Rice (rice (Oryza sativa); [18]): 20 | Rice plant response rating (rice (Oryza sativa); 31 g ai/ha): 0 | Plant response rating, Barley [11, 19]: 0 | Barley plant response rating (0 to 100 scale) [11, 22]: 0 | Plant response rating, Barley [11, 20]: 25 | Plant response rating, Barley [11, 23]: 30
